Values quoted from earlier work in US20130130306A1, “ZN (II) BASED COLORIMETRIC SENSOR AND PROCESS FOR THE PREPARATION THEREOF” (COUNCIL OF SCIENTIFIC & INDUSTRIAL RESEARCH, priority 2010, published 2013).

Tested on: living microbes (eukaryotes and prokaryotes)
Settings: drug carrier, general knowledge; cited from earlier work

Question: With `OC[C@H]1O[C@@H]2O[C@H]3[C@H](O)[C@@H](O)[C@@H](O[C@H]4[C@H](O)[C@@H](O)[C@@H](O[C@H]5[C@H](O)[C@@H](O)[C@@H](O[C@H]6[C@H](O)[C@@H](O)[C@@H](O[C@H]7[C@H](O)[C@@H](O)[C@@H](O[C@H]1[C@H](O)[C@H]2O)O[C@@H]7CO)O[C@@H]6CO)O[C@@H]5CO)O[C@@H]4CO)O[C@@H]3CO` [α-CD, α-cyclodextrin] as the compound, how does the “toxicity to the living cell (known)” value read?
Answer: The value was “completely non-toxic”.
